Measurements published in patent publication US10167262B2, “Herbicidal substituted 3-arylpyrazoles” (FMC CORPORATION, priority 2014, dated 2019).

Tests used:
Format in all cases: in vivo
[1] = tested on: waterhemp_RES1, (ALS & Triazine resistant common waterhemp, Amaranthus rudis); test: Test E postemergence greenhouse test, plant response rating 0-100; conditions: scale 0 to 100
How it was run: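 Resistant waterhemp biotypes grown in peat/vermiculite medium and treated postemergence at 2–18 cm height (1- to 4-leaf stage). Kept in greenhouse 14 to 21 days, then visually rated against untreated controls on a 0–100 scale (0 no effect, 100 complete control).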

[2] = tested on: large (Lg) crabgrass (Digitaria sanguinalis); test: Test E pre-/postemergence greenhouse test, plant response rating 0-100; conditions: Preemergence, scale 0 to 100
[3] = tested on: giant foxtail (Setaria faberii); test: as above; conditions: Preemergence, scale 0 to 100
[4] = tested on: green foxtail (Setaria viridis); test: as above; conditions: Preemergence, scale 0 to 100
[5] = tested on: johnsongrass (Sorghum halepense); test: as above; conditions: Preemergence, scale 0 to 100
[6] = tested on: kochia (Kochia scoparia); test: as above; conditions: Preemergence, scale 0 to 100
How it was run: (§1)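 Visual control score, 0–100 relative to untreated plants, recorded 14–21 days after spraying. Treatments: preemergence on silt loam seedbeds and postemergence at the 1- to 4-leaf stage, with compound in surfactant-containing solvent.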

[7] = tested on: lambsquarters (Chenopodium album); test: as above; conditions: Preemergence, scale 0 to 100
How it was run: as §1

[8] = tested on: nightshade (eastern black nightshade, Solanum ptycanthum); test: as above; conditions: Preemergence, scale 0 to 100
How it was run: as §1

[9] = tested on: morningglory (Ipomoea coccinea); test: as above; conditions: Preemergence, scale 0 to 100
[10] = tested on: yellow nutsedge (Cyperus esculentus); test: as above; conditions: Preemergence, scale 0 to 100

COC(OC)(c1ccccc1)c1c[nH]nc1-c1cc(Cl)cc(Cl)c1 [Compound 13, 3-(3,5-dichlorophenyl)-4-(dimethoxyphenylmethyl)-1H-pyrazole]
Plant response rating, Waterhemp_RES1 ([1]; 125 g ai/ha): 90 | Plant response rating, Waterhemp_RES1 ([1]; 500 g ai/ha): 100

CCOC(OCC)(c1ccccc1)c1c[nH]nc1-c1cc(Cl)cc(Cl)c1 [Compound 14, 3-(3,5-dichlorophenyl)-4-(diethoxyphenylmethyl)-1H-pyrazole]
Plant response rating, Waterhemp_RES1 ([1]; 31 g ai/ha): 90 | Plant response rating, Waterhemp_RES1 ([1]; 62 g ai/ha): 95 | Plant response rating, Waterhemp_RES1 ([1]; 125 g ai/ha): 95 | Plant response rating, Waterhemp_RES1 ([1]; 250 g ai/ha): 100 | Plant response rating, Waterhemp_RES1 ([1]; 500 g ai/ha): 100

O=Cn1cc(C(=O)c2ccccc2)c(-c2cc(Cl)cc(Cl)c2)n1 [Compound 28]
Crabgrass, Large plant response rating ([2]; 31 g ai/ha): 0 | Crabgrass, Large plant response rating ([2]; 62 g ai/ha): 0 | Crabgrass, Large plant response rating ([2]; 125 g ai/ha): 0 | Crabgrass, Large plant response rating ([2]; 250 g ai/ha): 0 | Crabgrass, Large plant response rating ([2]; 500 g ai/ha): 0 | Foxtail, Giant plant response rating ([3]; 31 g ai/ha): 0 | Foxtail, Giant plant response rating ([3]; 62 g ai/ha): 0 | Foxtail, Giant plant response rating ([3]; 125 g ai/ha): 20 | Foxtail, Giant plant response rating ([3]; 250 g ai/ha): 0 | Foxtail, Giant plant response rating ([3]; 500 g ai/ha): 0 | Foxtail, Green plant response rating ([4]; 31 g ai/ha): 0 | Foxtail, Green plant response rating ([4]; 62 g ai/ha): 0 | Foxtail, Green plant response rating ([4]; 125 g ai/ha): 0 | Foxtail, Green plant response rating ([4]; 250 g ai/ha): 0 | Foxtail, Green plant response rating ([4]; 500 g ai/ha): 0 | Johnsongrass plant response rating ([5]; 31 g ai/ha): 0 | Johnsongrass plant response rating ([5]; 62 g ai/ha): 0 | Johnsongrass plant response rating ([5]; 125 g ai/ha): 0 | Johnsongrass plant response rating ([5]; 250 g ai/ha): 0 | Johnsongrass plant response rating ([5]; 500 g ai/ha): 0 | Kochia plant response rating ([6]; 31 g ai/ha): 15 | Kochia plant response rating ([6]; 62 g ai/ha): 20 | Kochia plant response rating ([6]; 125 g ai/ha): 40 | Kochia plant response rating ([6]; 250 g ai/ha): 40 | Kochia plant response rating ([6]; 500 g ai/ha): 85 | Lambsquarters plant response rating ([7]; 31 g ai/ha): 0 | Lambsquarters plant response rating ([7]; 62 g ai/ha): 95 | Lambsquarters plant response rating ([7]; 125 g ai/ha): 100 | Lambsquarters plant response rating ([7]; 250 g ai/ha): 100 | Lambsquarters plant response rating ([7]; 500 g ai/ha): 100 | Nightshade plant response rating ([8]; 31 g ai/ha): 0 | Nightshade plant response rating ([8]; 62 g ai/ha): 0 | Nightshade plant response rating ([8]; 125 g ai/ha): 0 | Nightshade plant response rating ([8]; 250 g ai/ha): 0 | Nightshade plant response rating ([8]; 500 g ai/ha): 0 | Morningglory plant response rating ([9]; 31 g ai/ha): 0 | Morningglory plant response rating ([9]; 62 g ai/ha): 0 | Morningglory plant response rating ([9]; 125 g ai/ha): 0 | Morningglory plant response rating ([9]; 250 g ai/ha): 0 | Morningglory plant response rating ([9]; 500 g ai/ha): 0 | Nutsedge, Yellow plant response rating ([10]; 31 g ai/ha): 0 | Nutsedge, Yellow plant response rating ([10]; 62 g ai/ha): 0 | Nutsedge, Yellow plant response rating ([10]; 125 g ai/ha): 0 | Nutsedge, Yellow plant response rating ([10]; 250 g ai/ha): 0 | Nutsedge, Yellow plant response rating ([10]; 500 g ai/ha): 0 | Plant response rating, Waterhemp_RES1 ([1]; 31 g ai/ha): 85 | Plant response rating, Waterhemp_RES1 ([1]; 62 g ai/ha): 85 | Plant response rating, Waterhemp_RES1 ([1]; 125 g ai/ha): 90 | Plant response rating, Waterhemp_RES1 ([1]; 250 g ai/ha): 95 | Plant response rating, Waterhemp_RES1 ([1]; 500 g ai/ha): 90

CCn1cc(C(=O)c2cccs2)c(-c2cc(Cl)cc(Cl)c2)n1 [Compound 18]
Plant response rating, Waterhemp_RES1 ([1]; 31 g ai/ha): 60 | Plant response rating, Waterhemp_RES1 ([1]; 62 g ai/ha): 70 | Plant response rating, Waterhemp_RES1 ([1]; 125 g ai/ha): 85 | Plant response rating, Waterhemp_RES1 ([1]; 250 g ai/ha): 95 | Plant response rating, Waterhemp_RES1 ([1]; 500 g ai/ha): 95

CCn1cc(C(=O)c2ccccc2)c(-c2cc(Cl)cc(Cl)c2)n1 [Compound 31, [3-(3,5-dichlorophenyl)-1-ethyl-1H-pyrazol-4-yl]phenylmethanone]
Crabgrass, Large plant response rating ([2]; 62 g ai/ha): 0 | Crabgrass, Large plant response rating ([2]; 125 g ai/ha): 0 | Crabgrass, Large plant response rating ([2]; 250 g ai/ha): 0 | Crabgrass, Large plant response rating ([2]; 500 g ai/ha): 0 | Foxtail, Giant plant response rating ([3]; 62 g ai/ha): 0 | Foxtail, Giant plant response rating ([3]; 125 g ai/ha): 0 | Foxtail, Giant plant response rating ([3]; 250 g ai/ha): 0 | Foxtail, Giant plant response rating ([3]; 500 g ai/ha): 0 | Foxtail, Green plant response rating ([4]; 62 g ai/ha): 0 | Foxtail, Green plant response rating ([4]; 125 g ai/ha): 0 | Foxtail, Green plant response rating ([4]; 250 g ai/ha): 0 | Foxtail, Green plant response rating ([4]; 500 g ai/ha): 0 | Johnsongrass plant response rating ([5]; 62 g ai/ha): 0 | Johnsongrass plant response rating ([5]; 125 g ai/ha): 0 | Johnsongrass plant response rating ([5]; 250 g ai/ha): 0 | Johnsongrass plant response rating ([5]; 500 g ai/ha): 0 | Kochia plant response rating ([6]; 62 g ai/ha): 35 | Kochia plant response rating ([6]; 125 g ai/ha): 25 | Kochia plant response rating ([6]; 250 g ai/ha): 50 | Kochia plant response rating ([6]; 500 g ai/ha): 70 | Lambsquarters plant response rating ([7]; 62 g ai/ha): 0 | Lambsquarters plant response rating ([7]; 125 g ai/ha): 100 | Lambsquarters plant response rating ([7]; 250 g ai/ha): 100 | Lambsquarters plant response rating ([7]; 500 g ai/ha): 100 | Nightshade plant response rating ([8]; 62 g ai/ha): 0 | Nightshade plant response rating ([8]; 125 g ai/ha): 0 | Nightshade plant response rating ([8]; 250 g ai/ha): 0 | Nightshade plant response rating ([8]; 500 g ai/ha): 50 | Morningglory plant response rating ([9]; 62 g ai/ha): 0 | Morningglory plant response rating ([9]; 125 g ai/ha): 0 | Morningglory plant response rating ([9]; 250 g ai/ha): 0 | Morningglory plant response rating ([9]; 500 g ai/ha): 0 | Nutsedge, Yellow plant response rating ([10]; 62 g ai/ha): 0 | Nutsedge, Yellow plant response rating ([10]; 125 g ai/ha): 0 | Nutsedge, Yellow plant response rating ([10]; 250 g ai/ha): 0 | Nutsedge, Yellow plant response rating ([10]; 500 g ai/ha): 0

COCC(=O)n1cc(C(=O)c2ccccc2)c(-c2cc(Cl)cc(Cl)c2)n1 [Compound 16, 1-[4-benzoyl-3-(3,5-dichlorophenyl)-1H-pyrazol-1-yl]-2-methoxyethanone]
Crabgrass, Large plant response rating ([2]; 31 g ai/ha): 0 | Crabgrass, Large plant response rating ([2]; 62 g ai/ha): 0 | Crabgrass, Large plant response rating ([2]; 125 g ai/ha): 0 | Crabgrass, Large plant response rating ([2]; 250 g ai/ha): 0 | Crabgrass, Large plant response rating ([2]; 500 g ai/ha): 0 | Foxtail, Giant plant response rating ([3]; 31 g ai/ha): 0 | Foxtail, Giant plant response rating ([3]; 62 g ai/ha): 0 | Foxtail, Giant plant response rating ([3]; 125 g ai/ha): 0 | Foxtail, Giant plant response rating ([3]; 250 g ai/ha): 0 | Foxtail, Giant plant response rating ([3]; 500 g ai/ha): 0 | Foxtail, Green plant response rating ([4]; 31 g ai/ha): 0 | Foxtail, Green plant response rating ([4]; 62 g ai/ha): 0 | Foxtail, Green plant response rating ([4]; 125 g ai/ha): 0 | Foxtail, Green plant response rating ([4]; 250 g ai/ha): 0 | Foxtail, Green plant response rating ([4]; 500 g ai/ha): 0 | Johnsongrass plant response rating ([5]; 31 g ai/ha): 0 | Johnsongrass plant response rating ([5]; 62 g ai/ha): 0 | Johnsongrass plant response rating ([5]; 125 g ai/ha): 0 | Johnsongrass plant response rating ([5]; 250 g ai/ha): 0 | Johnsongrass plant response rating ([5]; 500 g ai/ha): 30 | Kochia plant response rating ([6]; 31 g ai/ha): 0 | Kochia plant response rating ([6]; 62 g ai/ha): 0 | Kochia plant response rating ([6]; 125 g ai/ha): 0 | Kochia plant response rating ([6]; 250 g ai/ha): 50 | Kochia plant response rating ([6]; 500 g ai/ha): 75 | Morningglory plant response rating ([9]; 31 g ai/ha): 0 | Morningglory plant response rating ([9]; 62 g ai/ha): 20 | Morningglory plant response rating ([9]; 125 g ai/ha): 20 | Morningglory plant response rating ([9]; 250 g ai/ha): 0 | Morningglory plant response rating ([9]; 500 g ai/ha): 40 | Nutsedge, Yellow plant response rating ([10]; 31 g ai/ha): 0 | Nutsedge, Yellow plant response rating ([10]; 62 g ai/ha): 20 | Nutsedge, Yellow plant response rating ([10]; 125 g ai/ha): 35 | Nutsedge, Yellow plant response rating ([10]; 250 g ai/ha): 0 | Nutsedge, Yellow plant response rating ([10]; 500 g ai/ha): 0

Cn1cc(C(=O)c2cccs2)c(-c2cc(Cl)cc(Cl)c2)n1 [Compound 17]
Plant response rating, Waterhemp_RES1 ([1]; 31 g ai/ha): 70 | Plant response rating, Waterhemp_RES1 ([1]; 62 g ai/ha): 70 | Plant response rating, Waterhemp_RES1 ([1]; 250 g ai/ha): 85 | Plant response rating, Waterhemp_RES1 ([1]; 500 g ai/ha): 85
